# From PubChem BioAssay AID1159564 (GlaxoSmithKline (GSK), 2015)
# Active and inactive are the calls of the source. How the calls were made is not given here.
# Test system: L. donovani-infected THP-1 macrophages, intracellular amastigote imaging
# Assay: intracellular L. donovani amastigote inhibition, imaging, THP-1 host macrophages, host toxicity (AID 1159564)
# [1] = measured here: THP-1 host cell toxicity
# [2] = measured here: amastigotes per macrophage
SMILES,IC50,IC50 [1] [µM],IC50 [2] [µM]
O=C(NCCc1cccnc1)c1ccc(-c2ccccc2F)o1,> 50 µM (inactive),> 50,> 50
N#Cc1cc(-c2ccnc(Nc3cccc(CN4CCOCC4)c3)n2)ccc1NCCN,1.6 µM,7.9,0.79
O=C(COc1ncnc2cc([N+](=O)[O-])ccc12)NC(=O)NC1CCCCC1,> 50 µM (inactive),> 50,> 50
COc1ccc(NS(=O)(=O)c2cc(-c3cc(C)[nH]n3)ccc2C)cc1OC,10 µM,> 50,7.9
Cc1nc(-c2nc(NCc3ccc(Cl)cc3)c3cccnc3c2O)n[nH]1,0.5 µM,6.3,0.5
Cc1nc2c(-c3nc(-c4ccc(N)cc4)n[nH]3)cccn2c1C,2 µM,13,1.6
COc1ccc(NS(=O)(=O)c2cc(NC(=O)Cc3ccc(C)cc3)ccc2N2CCOCC2)cc1,> 50 µM (inactive),> 50,> 50
Cc1cc(Br)cc(C(=O)c2c(C(C)C)c(=O)[nH]c(=O)n2Cc2ccnc(N)c2)c1,32 µM,40,20
O=C1COC(c2ccccc2)(c2ccccc2)CN1C1CCN(Cc2ccc(-n3ccnc3)cc2)CC1,16 µM,16,13
c1ccc(Nc2nc3ccccc3[nH]2)nc1,7.9 µM,25,7.9
c1cc(-c2ncc(-c3ccn[nH]3)s2)ccn1,> 50 µM (inactive),> 50,10
CNc1cncc(C2CCCN2C(=O)Cc2coc3cc(C)ccc23)n1 (stereo not drawn),> 50 µM (inactive),> 50,0.79
O=C(Cn1cnc2cc([N+](=O)[O-])ccc2c1=O)NCCc1ccc(Cl)cc1Cl,> 50 µM (inactive),> 50,> 50
COCc1cc(Nc2ccc(Cl)cc2)nc(-c2ccccn2)n1,1.3 µM,20,0.79
CC(=O)NC1(c2ccccc2)CCN(CC(=O)Nc2ccccc2-c2ccccc2)CC1,> 50 µM (inactive),> 50,40
Nc1nc(-c2ccccn2)nc(-n2nc(-c3cccc(C(F)(F)F)c3)cc2N)n1,0.79 µM,5,0.5
COc1cccc(C(=O)[C@H]2C[C@@H]2CN(Cc2cccnc2)Cc2cccnc2)c1,> 50 µM (inactive),40,7.9
O=S1N=C(NCCCN(Cc2ccc(F)cc2)c2ccccn2)C(NCc2ccncc2)=N1 (stereo not drawn),> 50 µM (inactive),25,25
O=C(Nc1nc(-c2ccc(S(=O)(=O)N3CCOCC3)cc2)cs1)c1ccc([N+](=O)[O-])cc1,> 50 µM (inactive),4,2.5
Cc1nn(-c2nc3ccccc3s2)c2c1C(c1ccc(OCC(N)=O)cc1)SCC(=O)N2 (stereo not drawn),> 50 µM (inactive),> 50,> 50
COc1ccccc1C1CC(c2ccc(NS(C)(=O)=O)cc2)=NN1C(=O)c1cccs1 (stereo not drawn),4 µM,> 50,2.5
Cc1occc1C(=O)Nc1ccccc1C(=O)Nc1nccs1,> 50 µM (inactive),> 50,> 50
CCN(CC)c1nc(N(C)C)nc2c1CN(Cc1ccccc1)CC2,6.3 µM,40,4

SMILES,IC50,IC50 [1] [µM],IC50 [2] [µM]
Cc1ccc(C)c(-n2nnnc2Sc2nc([N+](=O)[O-])nn2C)c1,> 50 µM (inactive),> 50,> 50
COc1cccc(-c2cc(C(F)(F)F)nc(-n3ccc([N+](=O)[O-])n3)n2)c1,> 50 µM (inactive),> 50,> 50
CC(c1cc(Cl)cc(Cl)c1)N(C)c1ncc2c(N)nc(N)nc2n1 (stereo not drawn),0.79 µM,32,0.25
NC(=O)c1ccsc1NC(=O)c1ccc([N+](=O)[O-])s1,1.6 µM,13,1.3
CC(C)N(C(=O)CN1C(=O)C(N)C(=O)N(c2ccccc2)c2ccccc21)c1ccccc1 (stereo not drawn),> 50 µM (inactive),> 50,> 50
CCN(C)Cc1ccc(N2CCC(NS(=O)(=O)c3ccc4c(c3)CCO4)CC2)nc1,> 50 µM (inactive),> 50,–
Cc1cn[nH]c1C1CCCN(Cc2nc3ccccc3n2C)C1 (stereo not drawn),4 µM,20,3.2
Clc1ccc(CN2CCN(C3=NCCN3)CC2)cc1Cl,> 50 µM (inactive),> 50,> 50
C=CC[C@@H]1CC=C[C@@H](C)N1C(=O)CCc1nnc(-c2ccc3c(c2)OCO3)o1,7.9 µM,13,3.2
CCN(CC)S(=O)(=O)c1ccc(OC)c(NC(=O)c2ccc([N+](=O)[O-])s2)c1,> 50 µM (inactive),> 50,> 50
COc1ccc(S(=O)(=O)NCc2ccc(-c3ccc(CN(C)CCO)cc3)cc2)cc1,16 µM,20,20
Oc1cccnc1-c1n[nH]c(Cc2ccccc2)n1,3.2 µM,16,2
CCN(CC)S(=O)(=O)c1ccc(Cn2nc(C(=O)Nc3ccncn3)c3ccccc32)cc1,> 50 µM (inactive),> 50,> 50
O=C(Nc1nc(-c2ccccn2)cs1)N1C[C@H]2C[C@@]2(c2ccccc2)C1,0.5 µM,7.9,0.4
CCN(Cc1ccncc1)Cc1ccc(NC(=O)c2cc(-c3ccc(F)cc3)n[nH]2)cc1,> 50 µM (inactive),5,2.5
Cc1nn(-c2nc(N)nc(-c3ccccn3)n2)c(C)c1Cc1ccccc1,3.2 µM,> 50,2.5
COc1ccc(-c2cc(C)no2)cc1S(=O)(=O)Nc1ccc(F)c(Cl)c1,25 µM,32,20
CC(C)CC(=O)Nc1cc(C2CC2)nn1-c1nc2c(c(=O)[nH]1)CCCC2,7.9 µM,5,5
Cc1ccc(NC(=O)c2ccc(Cl)c(NC(=O)c3ccc([N+](=O)[O-])cc3)c2)cc1,> 50 µM (inactive),> 50,> 50
CC(C(=O)Nc1ccc(Br)cc1)N1CCN(c2ccc([N+](=O)[O-])cc2)CC1 (stereo not drawn),> 50 µM (inactive),> 50,> 50
O=[N+]([O-])c1ccc(-c2nnn(-c3cccnc3)n2)o1,> 50 µM (inactive),13,50
O=[N+]([O-])c1ccc(C2=CC(c3ccccc3)=NCCN2)cc1,20 µM,40,7.9
CCCc1nc2nc(N)nc(N)c2cc1CC,40 µM,> 50,40

SMILES,IC50,IC50 [1] [µM],IC50 [2] [µM]
COc1ccccc1C=CCN1C[C@H]2CCC[C@@H](C1)C2(O)c1cccnc1 (stereo partly drawn),> 50 µM (inactive),40,32
COc1ccccc1C(=O)Nc1nnc(-c2ccc3c(c2)OCO3)s1,1 µM,16,0.63
N#Cc1ccc(Br)cc1[N+](=O)[O-],20 µM,25,13
CCN(Cc1nc2ccc(C(=O)N3CCN(c4ncccn4)CC3)cc2[nH]1)C1CCCc2cccnc21 (stereo not drawn),4 µM,20,1.6
OC[C@@H](Nc1nccc(-c2c(-c3ccc(F)cc3)ncn2C2CCNCC2)n1)c1ccccc1,32 µM,32,32
Cc1ccc(S(C)(=O)=O)cc1Nc1nccc(-c2sc(N)nc2-c2ccccc2)n1,5 µM,20,2.5
CCCc1cc(N)nc(-c2cc(CCC)cc(N)n2)c1,2.5 µM,20,1.6
CCc1c(C)nc(-n2nc(C)cc2NC(=O)COc2ccccc2F)[nH]c1=O,7.9 µM,4,5
c1ccc2c(CCOc3nccnc3-c3ccncc3)c[nH]c2c1,> 50 µM (inactive),20,20
CCN(CC)S(=O)(=O)c1ccc(C(=O)Nc2cc(C)nn2-c2nc(C)c(C)c(=O)[nH]2)cc1,> 50 µM (inactive),3.2,> 50
c1cncc(CN(Cc2ccco2)Cc2cn[nH]c2-c2cccs2)c1,> 50 µM (inactive),20,1.3
Cc1ccc(Nc2nc(N)nc(CNC(c3nc4ccccc4[nH]3)C(C)C)n2)cc1 (stereo not drawn),2 µM,25,1.3
Oc1c(-c2n[nH]c(CCc3ccccc3)n2)ncc2cccnc12,4 µM,20,3.2
CCC(=O)N1N=C(c2ccc3c(c2)CCCC3)Sc2c1ncn2C(=O)CC,3.2 µM,> 50,2.5
O=C(NCCc1csc(-c2cccc(F)c2)n1)c1ccco1,> 50 µM (inactive),> 50,> 50
O=c1[nH]ccc2ccc(-c3ccncc3)cc12,> 50 µM (inactive),40,20
CC(C)(C)C(=O)NCCc1csc(-c2ccc(F)cc2)n1,> 50 µM (inactive),> 50,> 50
CN(C)c1ccc(N)cc1CN(CC1CCCO1)S(C)(=O)=O (stereo not drawn),13 µM,> 50,10
Cc1ccccc1NS(=O)(=O)c1ccc2[nH]cc(C(=O)NC3CCCCC3)c(=O)c2c1,40 µM,32,40
O=C(c1ccc(O)c(Cl)c1)N1CCN(c2cnccn2)CC1,5 µM,> 50,3.2
N#Cc1cccc(CN2CCC(N(Cc3cccnc3)C(=O)c3cc(F)c(F)cc3F)CC2)c1,> 50 µM (inactive),> 50,13
O=C(NCCc1ccccn1)C(c1cn[nH]c1)N1CCN(c2ccc(Cl)c(Cl)c2)CC1 (stereo not drawn),> 50 µM (inactive),> 50,20
